Drawing on ChEMBL document CHEMBL6127071, “Albusamides A-G: Hydroxylated Fatty Amine Derivatives from the Deep-Sea-Derived Actinomycete Streptomyces albus 228DD-066 and Their Cytotoxic Activity” (2024), this text covers GI50 for twelve compounds.

Broadly, the GI50 is the concentration at which growth is held to half of that of the control.

Counter-ions that a name gives are not always drawn.

Format in all cases: functional
The test system of test [1] is NCI-H23. Kind of test: Growth inhibition of human NCI-H23 cells assessed as reduction in cell viability measured after 48 hrs by SRB method. On the technique in general: In SRB staining, fixed cells bind dye roughly in proportion to their protein.
The subject of test [2] is RPMI 8402. Kind of test: Growth inhibition of human RPMI 8402 cells assessed as reduction in cell viability measured after 48 hrs by SRB method.
The subject of test [3] is PC-3. Kind of test: Growth inhibition of human PC-3 cells assessed as reduction in cell viability measured after 48 hrs by SRB method.
Test [4] deals with U-266. Kind of test: Growth inhibition of human U-266 cells assessed as reduction in cell viability measured after 48 hrs by SRB method.
The subject of test [5] is ACHN. Kind of test: Growth inhibition of human ACHN cells assessed as reduction in cell viability measured after 48 hrs by SRB method.
A short description of test [6]: Growth inhibition of human MRC9 cells assessed as reduction in cell viability measured after 48 hrs by SRB method.
Test [7] concerns MDA-MB-231. Put plainly: Growth inhibition of human MDA-MB-231 cells assessed as reduction in cell viability measured after 48 hrs by SRB method.
For test [8], the system named is WSUDLCL2. Kind of test: Growth inhibition of human WSUDLCL2 cells assessed as reduction in cell viability measured after 48 hrs by SRB method.
The test system of test [9] is NALM-6. Kind of test: Growth inhibition of human NALM-6 cells assessed as reduction in cell viability measured after 48 hrs by SRB method.
The test system of test [10] is Raji. Kind of test: Growth inhibition of human Raji cells assessed as reduction in cell viability measured after 48 hrs by SRB method.
Test [11] concerns K562. Kind of test: Growth inhibition of human K562 cells assessed as reduction in cell viability measured after 48 hrs by SRB method.
Test [12] relates to HCT-15. Kind of test: Growth inhibition of human HCT-15 cells assessed as reduction in cell viability measured after 48 hrs by SRB method.
The nature of test [13]: Growth inhibition of human RPMI-1788 cells assessed as reduction in cell viability measured after 48 hrs by SRB method.
Test [14] relates to NUGC-3. Kind of test: Growth inhibition of human NUGC-3 cells assessed as reduction in cell viability measured after 48 hrs by SRB method.
For test [15], the system named is HL-60. Kind of test: Growth inhibition of human HL-60 cells assessed as reduction in cell viability measured after 48 hrs by SRB method.

With `CC[C@@H](O)CCCCCCCCCNC(C)=O`, the 50% growth inhibitory concentration (GI50) in [1] was 5.3 µM; in [2], above 30 µM; in test [3], 5.1 µM; in [4], above 30 µM; in [5], 5.7 µM; in [6] it was 5.3 µM. In addition, the GI50 was 4.7 µM in [7]; 14 µM in test [8]; above 30 µM in test [9]; above 30 µM in test [10]; above 30 µM in test [11]; 4.6 µM in test [12]. The GI50 in test [13] was 4.7 µM; in [14] it was 3.9 µM; in test [15], above 30 µM.
Turning to `CC(=O)NCCCCCCCCC[C@@H](O)[C@H](C)O`, the GI50 is 7.2 µM in [1]; above 30 µM in test [2]; 7.3 µM in test [3]; above 30 µM in [4]; 6.4 µM in [5]; 6.7 µM in test [6]. In addition, the GI50 in test [7] is 7.5 µM; in test [8] it was above 30 µM; in [9] it was above 30 µM; in test [10], above 30 µM; in [11], above 30 µM; in [12], 5.8 µM. Moreover, the figures for the GI50 in test [13], in [14] and in [15] were 17 µM, 6.6 µM and above 30 µM, respectively.
As for `CC(=O)NCCCCCCCCC[C@@H](O)[C@@H](C)O`, the GI50 in test [1] is 1.9 µM; in test [2], above 30 µM; in test [3], 1.7 µM; in test [4], above 30 µM; in [5] it was 1.6 µM; in test [6], 2 µM. Besides, the GI50 is 2 µM in test [7]; 8.3 µM in [8]; above 30 µM in test [9]; above 30 µM in test [10]; above 30 µM in [11]; 2.1 µM in test [12]. Also, the GI50 is 3.1 µM in test [13], 1.4 µM in test [14] and above 30 µM in [15].
Take `CC(=O)NCCCCCCCCCO`: the GI50 is 2.1 µM in test [1]; 4.4 µM in test [2]; 2 µM in test [3]; above 30 µM in test [4]; 2.3 µM in test [5]; 2.8 µM in test [6]. Moreover, the GI50 in test [7] was 2.6 µM; in test [8], 1.3 µM; in test [9], 18 µM; in [10], above 30 µM; in test [11], 19 µM; in test [12], 2.6 µM. Further, the GI50 in test [13] worked out at 0.5 µM; in [14], 1.5 µM; in test [15], 15 µM.
`CC(=O)NCCCCCCCCCC(=O)CCO`: the GI50 is 18 µM in [1]; above 30 µM in [2]; 19 µM in [3]; above 30 µM in [4]; 16 µM in test [5]; 20 µM in test [6]. Also, the concentration for 50% growth inhibition (GI50) in test [7] is 18 µM; in test [8] it was above 30 µM; in test [9], above 30 µM; in test [10], above 30 µM; in test [11] it was above 30 µM; in [12], 15 µM. Besides, the GI50 was 28 µM in test [13], 17 µM in test [14] and above 30 µM in [15].
Consider `CC(=O)CCCCCCCCCCNC(C)=O`, for which the concentration for 50% growth inhibition (GI50) in test [1], in [2], in [3], in [4], in test [5] and in test [6] was above 30 µM in each case. Besides, the GI50 in test [7], in test [8], in [9], in test [10], in [11] and in test [12] was above 30 µM in each case. Besides, the GI50 in test [13], in test [14] and in test [15] was above 30 µM throughout.
For `CC(=O)NCCCCCCCCC[C@@H](O)CCO`, the GI50 was 4.6 µM in test [1]; 25 µM in test [2]; 5.5 µM in [3]; above 30 µM in test [4]; 5.8 µM in test [5]; 4 µM in test [6]. For the same compound, the GI50 in test [7] was 4.6 µM; in [8], 5.6 µM; in test [9] it was above 30 µM; in test [10] it was above 30 µM; in test [11], 28 µM; in test [12], 5.4 µM. Also, the GI50 in [13] is 2.9 µM; in test [14], 3 µM; in [15] it was above 30 µM.
On to `CC(=O)NCCCCCCCCCC[C@H](O)CO`, for which the GI50 is 0.5 µM in [1]; 0.6 µM in test [2]; 0.5 µM in test [3]; above 30 µM in test [4]; 0.5 µM in test [5]; 0.6 µM in test [6]. Further, the GI50 came to 0.5 µM in test [7]; 0.2 µM in test [8]; 1.5 µM in [9]; 26 µM in test [10]; 1.5 µM in test [11]; 0.5 µM in test [12]. Besides, the GI50 is 0.1 µM in test [13], 0.4 µM in [14] and 1.3 µM in test [15].
For the compound `CC(=O)NCCCCCCCCCC[C@@H](C)O`, the GI50 in [1] was 22 µM; in test [2], above 30 µM; in test [3], 19 µM; in [4], above 30 µM; in test [5], 23 µM; in test [6] it was 19 µM. The GI50 was 20 µM in test [7]; above 30 µM in test [8]; above 30 µM in [9]; above 30 µM in test [10]; above 30 µM in test [11]; 16 µM in test [12]. Moreover, the values for the GI50 in test [13], in test [14] and in test [15] were above 30 µM, 19 µM and above 30 µM, respectively.
Turning to `CCC(=O)CCCCCCCCCNC(C)=O`, the GI50 in test [1], in test [2], in test [3], in [4], in test [5] and in test [6] was above 30 µM each time. Moreover, the GI50 in test [7] is above 30 µM; in test [8], above 30 µM; in test [9] it was above 30 µM; in test [10], 19 µM; in [11], above 30 µM; in test [12], above 30 µM. Moreover, the GI50 in test [13], in test [14] and in test [15] was above 30 µM in each case.
As for `CC(=O)CCCCCCCCNC(C)=O`, the GI50 in test [1] was 1 µM; in test [2] it was 2.5 µM; in [3] it was 0.8 µM; in [4] it was above 30 µM; in test [5] it was 1.1 µM; in test [6] it was 1.1 µM. For the same compound, the GI50 in test [7] was found to be 1.1 µM; in test [8], 0.8 µM; in test [9], 9.2 µM; in [10] it was 0.4 µM; in [11] it was 11 µM; in test [12], 1.1 µM. Also, the GI50 in [13] was 0.4 µM; in test [14] it was 0.7 µM; in test [15], 7.9 µM.
`COc1cccc2c1C(=O)c1c(O)c3c(c(O)c1C2=O)C[C@@](O)(C(=O)CO)C[C@@H]3O[C@H]1C[C@H](N)[C@H](O)[C@H](C)O1` [DOXORUBICIN HYDROCHLORIDE]: the GI50 in test [1] came out at 0.072 µM; in test [2], 0.01 µM; in test [3], 0.085 µM; in test [4], 0.004 µM; in test [5] it was 0.081 µM; in [6], 0.08 µM. The 50% growth inhibitory concentration (GI50) came out at 0.077 µM in [7]; 0.004 µM in [8]; 0.003 µM in [9]; 0.008 µM in test [10]; 0.007 µM in [11]; 0.087 µM in test [12]. Besides, the GI50 came to 0.007 µM in [13], 0.093 µM in test [14] and 0.002 µM in [15].
